Data taken from patent publication US8802702B2, “Compounds for reducing drug resistance and uses thereof” (The General Hospital Corporation, priority 2009, dated 2014).

How the values were obtained:
[1] = target: T1, Pgp1 efflux in SKOV-3TR and OVCAR8TR cells (Homo sapiens, UniProt P08183); assay: Calcein AM drug efflux assay (VYBRANT kit) in resistant cells; format: cell-based
T1 construct: endogenous in cells; host or cells: SKOV-3TR and OVCAR8TR (paclitaxel-selected resistant lines, not transfected)
T1 sequence (P08183 whole entry): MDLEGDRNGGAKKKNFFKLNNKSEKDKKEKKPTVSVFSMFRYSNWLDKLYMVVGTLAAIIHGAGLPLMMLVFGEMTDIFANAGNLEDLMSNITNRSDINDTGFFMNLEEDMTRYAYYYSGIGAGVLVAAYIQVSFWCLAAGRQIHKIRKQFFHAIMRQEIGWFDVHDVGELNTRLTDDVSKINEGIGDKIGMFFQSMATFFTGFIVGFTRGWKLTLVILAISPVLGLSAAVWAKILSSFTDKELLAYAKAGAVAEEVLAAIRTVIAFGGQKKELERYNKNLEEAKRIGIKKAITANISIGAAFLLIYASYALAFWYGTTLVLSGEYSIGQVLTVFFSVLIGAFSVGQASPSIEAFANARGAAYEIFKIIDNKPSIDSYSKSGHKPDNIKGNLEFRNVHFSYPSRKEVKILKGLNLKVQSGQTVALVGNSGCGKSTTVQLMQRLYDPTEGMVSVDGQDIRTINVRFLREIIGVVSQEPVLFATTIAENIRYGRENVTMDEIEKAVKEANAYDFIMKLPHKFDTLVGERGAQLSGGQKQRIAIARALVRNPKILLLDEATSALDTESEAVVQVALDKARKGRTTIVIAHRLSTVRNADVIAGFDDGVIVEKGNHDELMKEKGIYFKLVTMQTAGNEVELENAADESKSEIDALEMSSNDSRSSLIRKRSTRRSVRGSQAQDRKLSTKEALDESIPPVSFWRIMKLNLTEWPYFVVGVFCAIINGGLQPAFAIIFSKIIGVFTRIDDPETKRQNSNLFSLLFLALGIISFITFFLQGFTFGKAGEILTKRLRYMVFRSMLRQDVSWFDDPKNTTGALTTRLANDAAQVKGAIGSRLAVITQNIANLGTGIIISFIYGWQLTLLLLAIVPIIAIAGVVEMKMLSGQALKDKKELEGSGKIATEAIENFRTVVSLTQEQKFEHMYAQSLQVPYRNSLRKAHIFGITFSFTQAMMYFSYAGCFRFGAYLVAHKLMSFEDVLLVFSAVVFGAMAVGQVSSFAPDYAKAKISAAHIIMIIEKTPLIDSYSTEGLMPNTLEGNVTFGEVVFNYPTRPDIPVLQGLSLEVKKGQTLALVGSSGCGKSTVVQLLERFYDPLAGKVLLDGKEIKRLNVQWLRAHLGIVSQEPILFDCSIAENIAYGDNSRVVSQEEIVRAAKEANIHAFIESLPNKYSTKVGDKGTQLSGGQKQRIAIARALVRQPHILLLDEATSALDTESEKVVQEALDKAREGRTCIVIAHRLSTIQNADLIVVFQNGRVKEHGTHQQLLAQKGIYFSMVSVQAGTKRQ
Description: Calcein-AM assay was optimized and performed using the VYBRANT™ multi-drug resistance assay kit (Invitrogen/Molecular Probes) and SKOV-3TR cells. Cells were seeded at 50,000 cells/well (100 μl of culture medium) in a 96-well plate and incubated for 24 h. […] The cell fluorescence images were acquired by a fluorescence microscope (A, C) and quantities of fluorescence were measured in a SPECTRAmax Microplate Spectrofluorometer (B, D).
The VYBRANT™ multi-drug resistance assay kit (Invitrogen/Molecular Probes) was used to measure drug efflux properties of different resistant cell lines. This assay utilizes the fluorogenic dye calcein acetoxymethyl ester (calcein AM) as a substrate for efflux activity of Pgp1 or other membrane pump ABC proteins. Calcein AM is taken up by cells and hydrolyzed by cytoplasmic esterases to fluorescent calcein. Calcein AM is well retained in the cytosol. However, multi-drug resistant cells expressing high levels of Pgp1 rapidly extrude non-fluorescent calcein AM from the plasma membrane, reducing accumulation of fluorescent calcein in the cytosol. Drug sensitive and resistant cells (3×10^5) were cultured in 96-well plate for 24 hours and then incubated in 0.25 μM calcein AM in 150 μl total volume. After 30 minutes, the cells in plate were washed and centrifuged twice with 200 μl cold RPMI1640 culture medium, and cell fluorescence was measured at a […] on a SPECTRAMAX™ Microplate Spectrofluorometer (Molecular Devices).

[2] = tested on: Pgp1 mediated transport in SKOV-3TR cells; assay: Duration of MDR reversal after incubation and washout; format: cell-based, human; conditions: overnight exposure 1 μM
Description: Drug cytotoxicity was determined by MTT assay.
The cells were then incubated for 4 days with addition of varying concentrations of paclitaxel. Final results were determined by MTT assay as described above.

[3] = target: purified recombinant human Pgp1 membrane protein (Homo sapiens, UniProt P08183)
purified recombinant human Pgp1 membrane protein, sequence (P08183 whole entry): as above
Description: Luminescence was read on a BMG LABTECH Polarstar Optima Luminometer. The decrease in luminescence of untreated samples compared to samples plus Na3VO4(ARLUbasal) represents basal Pgp1 ATPase activity. […] E: Effect of NSC23925 on expression of Pgp1 in paclitaxel resistant cells. The paclitaxel resistant cell line SKOV-3TR was treated with different concentration of NSC23925 for 48 h. Equal amounts (20 μg protein) of total cell lysates were used for each sample. Pgp1 expression was determined by Western blot as described in the Examples section below.
The Pgp-Glo™ Assay Systems (Promega) provide the necessary reagents for performing luminescent P-glycoprotein (Pgp)-ATPase assays. The ATPase assay provides a rapid, […], compound-independent measure of the concentration-dependence of any interaction of a drug with Ppg1. […] Luminescence was read on a BMG LABTECH Polarstar Optima Luminometer. The decrease in luminescence of NT samples compared to samples plus Na3VO4 (ΔRLUbasal) represents basal Pgp-ATPase activity.
Pgp-ATPase assay is a valuable screening tool for determining if a drug interacts with Pgp.

[4] = tested on: SKOV-3TR and KHOSR2 cells; assay: Flow cytometry of intracellular doxorubicin retention; format: cell-based, human; conditions: 5 μM doxorubicin, NSC23925 0.5 μM, 1 hour
Description: FIG. 9 depicts the intracellular retention of doxorubicin from multidrug resistant SKOV-3TR and KHOSR2 cells in the presence of 5 μM doxorubicin with or without treatment of NSC23925 (0.5 μM). Cells were treated for 1 hour before the flow cytometry analysis.

[5] = tested on: Pgp1 expression in SKOV-3TR cells; assay: Pgp1 expression by Western blot; format: cell-based, human; conditions: NSC23925 up to 10 μM for 48 h
[6] = tested on: OVCAR8 and OVCAR8TR cells; assay: Cytotoxicity of NSC23925 alone (MTT assay), OVCAR8/OVCAR8TR; format: cell-based, human
Description: Cells were treated with the NSC23925 in RPMI1640 complete media at the indicated concentrations. The relative sensitivity of each line to NSC23925 was determined by MTT assay. A: Nonspecific toxicity of NSC23925 on SKOV3 vs SKOV-3TR. B: Nonspecific toxicity of NSC23925 on OVCAR8 vs OVCAR8TR. Drug cytotoxicity was assessed in vitro using the MTT assay. SKOV-3 and SKOV-3TR cells were used herein. Briefly, 2×10^3 cells per well were plated in 96-well plates in culture medium (RPMI 1640 supplemented with 10% fetal bovine serum and penicillin/streptomycin) containing increasing concentrations of drug. After 7 days of culture, 10 μl MTT (5 mg/ml in PBS, obtained from Sigma) were added to each well and the plates were incubated for 4 h. The resulting formazan product was dissolved with acid-isopropanol and the absorbance at a wavelength of 490 nm (A490) was read on a SPECTRAmax® Microplate Spectrophotometer (Molecular Devices, Sunnyvale, Calif.). The absorbance values were normalized by assigning the value of the control line in the medium without drug to 1.0 and the value of the no cell control to 0. Experiments were performed in triplicate.

COc1ccc(-c2cc(C(O)C3CCCCN3)c3ccccc3n2)cc1 (stereo not shown) [NSC23925, (2-(4-methoxyphenyl)quinolin-4-yl)(piperidin-2-yl)methanol]
Potency compared with verapamil and CsA (calcein AM accumulation) [1]: significantly greater | Half-maximal reversal of calcein AM accumulation deficit ([1]; SKOV-3TR and OVCAR8TR): 100 nM | Lowest concentration with prominent effect on accumulation of calcein AM ([1]; SKOV-3TR and OVCAR8TR): 1 nM | Near maximal reversal of calcein AM accumulation deficit ([1]; SKOV-3TR and OVCAR8TR): 500 nM | Duration of inhibition of Pgp1 mediated transport after wash-out [2]: at least 4 days | Stimulation of Pgp-ATPase activity [3]: > 30% | Accumulation of doxorubicin by flow cytometric analysis [4]: increases the accumulation of doxorubicin | Expression level of Pgp1 [5]: not affected | Cytotoxic effect of NSC23925 alone in parental OVCAR8 ([6]; <5-10 μM NSC23925 alone, cells lack Pgp1): no cytotoxic effect | IC50 ([6]; Homo sapiens, OVCAR-8, OVCAR8/OVCAR8TR, single agent, read-out: IC50 for NSC23925 (proliferation)): 25 µM
